Measurements reported in patent US20240139167A1, “LYSOSOME-ASSOCIATED MEMBRANE PROTEIN TARGETING COMPOUNDS AND USES THEREOF” (HADASIT MEDICAL RESEARCH SERVICES AND DEVELOPMENT LTD., priority 2021, published 2024).

Legend:
[1] = test system: HC and PD patient fibroblasts; assay: Seahorse ATP rate assay in Pompe disease fibroblasts; type: cell-based, human
Procedure: FIG. 17 includes a vertical bar graph showing glycolytic (1) and mitochondrial (2) ATP production determined by Agilent's Seahorse machine and ATP rate assay kit. HC and PD patient fibroblasts were serum/glucose-starved for 48 h and then full medium was replenished for 24 h without (untreated), or with (chronic) 50 μM 144DG11. Acute, 50 μM 144DG11 was added on assay for 20 min after 24 h of serum/glucose replenishment. Readings were normalized to cell number as determined by Crystal Violet staining. Shown are mean and SD values based on n=6 repeats. In acutely 144DG11-treated PD fibroblasts, glycolytic and total ATP production was increased, as compared to untreated PD cells (p<0.002, One Way ANOVA with Sidak's post-hoc correction for multiple comparisons).

[2] = Safety assessment in wild type mice, 3 months; type: in vivo
Procedure: FIG. 10 includes a graph of the body weights of wild type C57B16J mice treated with Compound 1 for 3 months. Mice were injected twice a week with 150 μL of Compound 1 at 250 mg/kg in 5% DMSO, or an equal volume of 5% DMSO (V, vehicle) control. Injections were intravenous for the first month and then subcutaneously for the following 2 months;
FIG. 11 includes images of brain, liver, skeletal muscle, and heart tissue slices of wild type C57B16J mice treated for 3 months with Compound 1. The slices were stained by H&E staining in order to visualize lesions. No lesions were apparent in either treatment. Scale bars, 500 μm (brain), 100 μm (liver), 200 µm (muscle), 100 μm (heart).
The inventors have tested Compound 1 (FIG. 1A) for its capacity to correct the deficient motor phenotypes and short lifespan in the APBD mouse model Gbe^ys/ys. Compound 1 is one of 19 PG reducing HTS hits previously discovered by the inventors. It was selected by in silico ADMET (Absorption, Distribution, Metabolism, Excretion, and Toxicity) tests run on these hits to predict which of them should be safe and pharmacokinetically and pharmacodynamically preferred and is therefore worth further pursuit (FIG. 8, compound “A”). […] Following 1 h and 24 h treatments, mice were also examined for abnormal spontaneous behavior, such as immobility, excessive running, stereotyped movements, and abnormal posture (Irwin tests).

Gbe^ys/ys mice = assay: Histological PG (PAS after diastase) and biochemical glycogen determination in tissues; type: in vivo
Text: FIGS. 2A-2C include images and graphs of histopathological effects of Compound 1 and its pharmacokinetics: right panel present images of indicated tissues of sacrificed mice and stained for PG (arrows) with PAS following treatment with diastase; left panel, presents bar graphs quantifying PAS staining, based on analysis of 4 sections from each tissue in n=2 wild type, n=7 Gbe^ys/ys vehicle-treated, and n=9 Compound 1-treated mice (2A); bar graph quantifying total glycogen in the respective tissues (2B); graph of Compound 1pharmacokinetics (2C); 9 months old Gbe^ys/ys mice were SC-injected with 150 μL of Compound 1 at 250 mg/kg. Mice were sacrificed 30-, 60-, 90-, and 210-min post injection and the indicated tissues were removed, as well as 200 μL of serum drawn. […] Shown are means and SEM of results obtained from n=3 mice at each time point.
Brain, heart, muscle, nerve fascicles (peripheral nerves), and liver tissues from wt and Compound 1 and vehicle treated Gbe^ys/ys animals were separated to characterize the histopathological effects of Compound 1. Tissues were extracted, fixed, embedded in paraffin, and sectioned. After deparaffinization, sections were treated for 5 min with 0.5% diastase to digest non-polyglucosan glycogen, leaving behind polyglucosan. Sections were then washed, stained for polyglucosan with PAS and counterstained with hematoxylin, and analyzed by light microscopy, all as previously described. […] Following digestion, total glycogen was determined based on the glucose content using the Sigma GAGO20 kit.
This information is important for determining whether the expected mode of action of Compound 1 discovered ex vivo -reduction of polyglucosan levels in fibroblasts — also takes place in vivo and if so in which tissues. […] Following diastase treatment to digest non-polyglucosan glycogen, leaving behind polyglucosan, sections were stained for polyglucosan with periodic acid-Schiff s (PAS) reagent, counterstained with hematoxylin and analyzed by light microscopy.

[3] = PAS after diastase, sacrifice at 9.5 months

COCCN(Cc1sccc1C)C(=O)c1cc(C)nc(O)c1 [Compound 1]
effect on ATP production ([1]; 24 h pre-treatment): not significant
overall ATP production ([1]; PD fibroblasts, 50 μM): increased
relative contribution of glycolytic ATP production at the expense of mitochondrial (OxPhos) ATP production ([1]; PD fibroblasts, 50 μM): increased
glycolytic and total ATP production ([1]; PD fibroblasts, acute 50 μM 20 min, p<0.002): increased
animals' weight gain over time ([2]; 3 months at 250 mg/kg in 5% DMSO): did not influence
histopathological damage or lesions in brain, liver, skeletal muscle, and heart ([2]; after 3 months exposure): did not produce any histopathological damage or lesions
muscle polyglucosans (Gbe^ys/ys mice; [3]): no apparent effect
polyglucosan levels in brain, liver, heart, and peripheral nerve (Gbe^ys/ys mice; [3]): significant reduction in polyglucosan levels
total glycogen levels, determined biochemically (Gbe^ys/ys mice; same tissues): correspondingly affected
